This is an account of results in patent publication US7087790B2, “Benzotropolone derivatives and modulation of inflammatory response” (Rutgers, The State University of New Jersey, priority 2003, dated 2006).

Values joined by “and” are separate entries in the source; they are usually repeats but may differ in a detail not shown here. Equal entries are not always repeated.

The subject of experiment [1] is TPA-induced ear edema. The conditions noted are these: topical; cited from earlier work.
Experiment [2] deals with TPA-induced Edema of Mouse Ear. Kind of experiment: TPA-induced ear edema assay (skin inflammation model). It counts as in vivo, female CD-I mice. The conditions noted are these: 0.5 μmol topical in acetone 20 min before TPA (1 nmol); for Average weight of ear punches (mg) (Mean ± SE): 6 mm punches 5 h later; for Percent inhibition %: ear punch weight 5 h later. The source says: In yet another aspect of the invention, the present invention is directed to a method of preventing and/or treating inflammation in an animal using compositions having benzotropolone containing compounds disclosed herein. […] The anti-inflammatory activity (or anti-edema) of benzotropolone containing compounds of the present invention can be tested using 12–0-tetradecanoylphorbol- 13-acetate (TPA) TPA-induced inflammatory skin edema assay. Application of TPA on skin results in induction of omithine decarboxylase activity that increases the polyamine level and epidermal hyperplasia, and inflammation, and pro-inflammatory cytokine (e.g., IL-1β) and prostaglandins (prostaglandin E2) production at the site. The benzotropolone containing compounds can be applied either prior to or subsequent to or simultaneously with the topical application of TPA to skin tissue (e.g. mice ear).
The TPA (12-O-tetradecanoylphorbol-13-acetate)-induced ear edema assay was carried out to examine anti-inflammatory activity of benzotropolone-containing compounds in skin inflammation model. The female CD-I mice (24-25 days old) were topically treated with 20 μl of acetone and benzotropolone-containing compounds in 20 μl of acetone at 20 minutes before topical application of 20 μl of acetone or TPA (1 nmol) in 20 μl of acetone. Then, five hours later, all mice were sacrificed by cervical dislocation. The ear punches (6 mm in diameter) were taken and weighed.

The nature of experiment [3]: Oxygen radical absorbance capacity (ORAC) assay with fluorescein probe and AAPH. Conditions: Trolox equivalents; 0.5 μM; 75 mM phosphate buffer pH 5.5; mean ± SD, n = 4 (a: n = 3). The text has this:
In another aspect, the present invention also discloses antioxidant activities of the compositions having benzotropolone containing compounds disclosed herein. Oxygen radical absorbence capacity (ORAC) assay, which is a measure of free radical scavenging ability, is simple and sensitive method to measure the oxygen-radical absorbing capacity. It has been widely used for measuring the antioxidant activity of food and nutraceutical components. ORAC assay was developed by Cao et al., 1993, Free Radical Biol. Med. 14:303–311. In the assay, β-phycoerythrin (β-PE) was used as fluorescent indicator protein and 2,2′-Azobis(2-amidinopropane) dihydrochloride (AAPH) used as a peroxy radical generator. β-PE is a photosynthetic protein found in red algae. β-PE has been used as fluorescent probe because of its distinct excitation and emission wavelength (Ex. 540 nm, Em. 565 nm). The use of β-PE as a fluorescent probe, however, has certain defects. When reactive oxygen species attack the β-PE, it can easily lose the fluorescence. Furthermore, the ORAC value can be affected by possible interaction between polyphenols and proteins. Recently, Ou et al., 2001, J. Agric. Food Chem. 49:4619–4626 reported an improved ORAC method using fluorescein, instead of β-PE, as a fluorescent probe. Accordingly, fluorescein is used as a fluorescent probe in ORAC assays for testing the antioxidant activities of the compounds of the present invention.
Oxygen radical absorbance capacity (ORAC) assay was performed to examine antioxidant activity of individual theaflavins and epitheaflavic acids. All reagents were prepared in 75 mM phosphate buffer (pH 5.5). Reaction mixture consists of 3 mL of Fluorescein solution (8.16×10^−5 mM), 500 μL AAPH (153 mM), and 500 μL of sample solution or blank. Once AAPH was added, fluorescence was measured every 1 min using Hitachi Model F-3010 fluorescence spectrophotometer with emission and excitation wavelength of 515 and 493 nm, respectively. The ORAC value was calculated based on the area under the fluorescence decay curve of fluorescein in the presence of the test compound comparing to the area generated by standard Trolox and blank. The net area under the curve and ORAC values were calculated by the formula presented by Cao et al (Cao et al. 1993).
The relative ORAC value (Trolox equivalents) was calculated with following equation.
The area under curve (AUC) was calculated according to following equation. AUC=1+f1/f0+f2/f0+f3/f0+f4/f0 . . . +f119/f0+f120/f0 f0 is the initial fluorescence reading at 0 min, fi is the fluorescence reading at time i.
Quenching curves representing the peroxyl radical absorbing activity of Trolox in various concentration (0˜4 μM) was used as a standard (data not shown). The net area of quenching curve increased proportionally to an increment of the Trolox concentration. Quenching curves of theaflavins and EGCG were examined (data not shown). […] Quenching curves of epitheaflavic acids and EGCG were also examined. (data not shown).

Regarding “Theaflavin 3,3′-digallate [Theaflavin 3,3′-gallate]”, the “anti-inflammatory activity (rank order, Liang et al.)” value in experiment [1] is reported as “stronger than TF-2”. In addition, in experiment [2], the “Average weight of ear punches (mg) (Mean ± SE)” value (from here on “Average weight … (Mean ± SE)”) is recorded as 7.03 ± 0.18 mg and the Percent inhibition % was 100.0%. The “Relative ORAC value” in experiment [3] amounted to 13.54 ± 0.69.

`O=C(O)c1cc(O)c(=O)c2c(O)c(O)ccc2c1` [GACa]: in experiment [2], the “Average weight … (Mean ± SE)” value stood at 8.61 ± 0.54 mg and the Percent inhibition % is 83.3%.

For Theaflavate A, in experiment [2], the “Average weight … (Mean ± SE)” value is 8.52 ± 0.26 mg and the Percent inhibition % was 87.2%.

On to `O=C(OC1Cc2c(O)cc(O)cc2OC1c1cc(O)c(=O)c2c(O)c(O)cc(C3Oc4cc(O)cc(O)c4CC3O)c2c1)c1cc(O)c(O)c(O)c1` (stereo not drawn) [Neotheaflavin 3-gallate], for which, in experiment [2], the “Average weight … (Mean ± SE)” value was determined as 8.42 ± 0.42 mg and the Percent inhibition % came to 88.4%.

Consider Neotheaflavate A, for which, in experiment [2], the “Average weight … (Mean ± SE)” value is recorded as 8.65 ± 0.64 mg and the Percent inhibition % is reported as 85.7%.

Regarding Theaflavate B, in experiment [2], the “Average weight … (Mean ± SE)” value stood at 8.35 ± 0.32 mg and the Percent inhibition % is 89.2%.

In the case of `O=c1c(O)cc([C@H]2Oc3cc(O)cc(O)c3C[C@H]2O)cc2c([C@H]3Oc4cc(O)cc(O)c4C[C@H]3O)cc(O)c(O)c12` [Theaflavin], in experiment [2], the “Average weight … (Mean ± SE)” value is 7.90 ± 0.42 mg and 8.23 ± 0.40 mg; the Percent inhibition % was 89.2% and 87.8%. For the same compound, the “Relative ORAC value” in experiment [3] was 11.60 ± 0.30.

`O=C(O[C@@H]1Cc2c(O)cc(O)cc2O[C@@H]1c1cc(=O)c(O)c2c(O)c(O)cc([C@H]3Oc4cc(O)cc(O)c4C[C@H]3O)c2c1)c1cc(O)c(O)c(O)c1` [Theaflavin 3-gallate]: in experiment [2], the “Average weight … (Mean ± SE)” value is 7.86 ± 0.24 mg and the Percent inhibition % was 91.5%. The “Relative ORAC value” in experiment [3] is 13.17 ± 0.18.

Theaflavin 3′-gallate: in experiment [2], the “Average weight … (Mean ± SE)” value stood at 7.44 ± 0.18 mg and the Percent inhibition % worked out at 100.0%. In experiment [3], the “Relative ORAC value” stood at 12.40 ± 0.58.

`O=C(O)c1cc(O)c(=O)c2c(O)c(O)cc([C@H]3Oc4cc(O)cc(O)c4C[C@@H]3O)c2c1` [Theaflavic acid]: in experiment [2], the “Average weight … (Mean ± SE)” value was 9.28 ± 0.37 mg and 8.95 ± 0.43 mg; the Percent inhibition % was 78.3% and 79.5%.

As for `O=C(O[C@@H]1Cc2c(O)cc(O)cc2O[C@@H]1c1cc(O)c(O)c(O)c1)c1cc(O)c(O)c(O)c1` [EGCG, (−)-epigallocatechin-3-gallate, reference compound], in experiment [2], the “Average weight … (Mean ± SE)” value amounted to 8.79 ± 0.54 mg and the Percent inhibition % is 68.3%. For the same compound, the “Relative ORAC value” in experiment [3] turned out to be 7.69 ± 0.35.

With `O=c1c(O)cccc2cc(O)c(O)c(O)c12` [Purprogallin, Purpurogallin], in experiment [3], the “Relative ORAC value” stood at 6.01 ± 0.42.

Regarding `O=c1c(O)cc([C@H]2Oc3cc(O)cc(O)c3C[C@H]2O)cc2c([C@H]3Oc4cc(O)cc(O)c4C[C@@H]3O)cc(O)c(O)c12` [Neotheaflavin], in experiment [2], the “Average weight … (Mean ± SE)” value was 10.58 ± 0.73 mg and the Percent inhibition % is listed as 62.9%.

Consider Epitheaflavic acid, for which, in experiment [2], the “Average weight … (Mean ± SE)” value was 9.39 ± 0.43 mg and the Percent inhibition % is on record as 74.4%. The “Relative ORAC value” in experiment [3] was 9.74 ± 0.38.

As to “Epigallocatechinocatechol gallate [EGCGCa]”, in experiment [2], the “Average weight … (Mean ± SE)” value was found to be 7.49 ± 0.12 mg and the Percent inhibition % turned out to be 96.3%.
